The values that follow come from patent US9611223B2, “3-aryl-5-substituted-isoquinolin-1-one compounds and their therapeutic use” (INSTITUTE OF CANCER RESEARCH: ROYAL CANCER HOSPITAL (THE), priority 2013, dated 2017).

SMILES strings stand for the structures. pIC50: −log10 of the molar value. Like-named read-outs stand apart in the source and are kept apart here. Some results are limits rather than exact numbers.

Holding throughout (type): cell-based
For one test, the system named is Wnt signalling. The test can be described thus: Wnt-Luciferase Reporter Assay. Conditions: DLD1-Wnt-Luc cells, 20-22 hours. As for the experimental part:
Wnt-Luciferase Reporter Assay
A Wnt dependent cell line (i.e., DLD1 colorectal adenocarcinoma cell line) was transduced with replication incompetent VSV-g pseudotyped lentiviral particles expressing the firefly luciferase gene under the control of minimal cytomegalovirus (mCMV) promoter and tandem repeats of the TCF/LEF transcriptional response element.
DLD1-Wnt-Luc cells were seeded (5000 cells/well) in a 96-well plate (Greiner Bio-One, cat. no. 655098) in Dubelco's Modified Eagle Medium (DMEM, SFBCO/Invitrogen, cat no. 41965-039) supplemented with Fetal Bovine Serum (FBS, 10%, SFBCO/Invitrogen, cat no. 10108-165). After overnight incubation, the media was replaced with OptiMEM (SFBCO/Invitrogen, cat no. 11058-021) supplemented with FBS (0.5%) and non-essential amino acids (1%, SFBCO/Invitrogen, cat no. 11140-035) and the appropriate putative TNKS inhibitor at a final concentration of 10 μM, 3 μM, 1 μM, 0.30 μM, 0.10 μM, 0.030 μM, 0.010 μM and 0 μM with 1% (v/v) final DMSO in double-triplicate wells. Positive control includes the use of XAV-939 (Maybridge, FisherScientific, 3,5,7,8-tetrahydro-2-[4-(trifluoromethyl)phenyl]-4H-thiopyrano[4,3-d]pyrimidin-4-one, cat. no. RF03920, see: Huang et al., Nature, 2009, Vol. 461, pp. 614-620). Cells were incubated for 20-22 hours before assaying for luciferase (first set of triplicates: Wnt activation) and viability (second set of triplicates: cell survival for data normalisation vs Wnt-activation) using ONE-Glo (Promega, cat. no. E6110) and CellTiter-Glo (Promega, cat. no. G7570) reagents consecutively. The assay was measured using a Victor^2 plate reader. The data were normalised to the DMSO control and were expressed as % Wnt activity as a function of inhibitor dose. Dose response curves used to determine IC50 values were Log transformed and analysed by non-linear regression analysis (variable slope) using Prism (GraphPad Software, Inc).

In another test the test system is DLD1 cells. Kind of test: Long-Term Clonogenic Assay (DLD1 cells). Particulars: Homo sapiens, DLD-1, 12-14 days, read-out: cell inhibitory SF50 (DLD1). As for the experimental part:
Clonogenic Inhibition in DLD1 or HT55 Cells
In order to determine the efficacy of chronic dosing of putative TNKS inhibitors, long term clonogenic or ‘colony formation’ assays were carried out. This included the sparse seeding of cells in a 6-well dish followed by continuous dosing of cells over 12-14 days (depending on relative cell growth). Appropriate cell lines (DLD1 or HT55) were seeded at 500 cells/well in a 6-well dish in DMEM supplemented with FBS. After overnight incubation, cells were treated with the appropriate putative TNKS inhibitor at 10 μM, 3 μM, 1 μM, 0.30 μM, 0.1 μM and 0 μM at 0.2-1% final DMSO concentration (cell line dependent) in DMEM supplemented with 10% FBS (DLD1 cells were dosed in DMEM supplemented with 0.5% FBS). Dosages were carried out in triplicate. Cell media containing compound or DMSO only was replenished every 48 hours. On termination of the assay, plates were read with Cell Titre Glo reagent and luminescence measured on an appropriate plate reader.
The data was normalised to the DMSO control and was expressed as surviving fraction as a function of inhibitor dose. Dose response curves used to determine SF50 values were Log transformed and analysed by non-linear regression analysis (variable slope) using Prism (GraphPad Software, Inc).

The next test relates to COLO320DM cells. Kind of test: Tumour Cell Inhibition Assay (COLO320DM cells). Conditions: Homo sapiens, COLO 320DM, 120 h, five day exposure, read-out: cell inhibitory SF50 (COLO320DM). As for the experimental part: (§1) Tumour Cell Inhibition in Colorectal Tumour Cells
(§2) In order to determine the efficacy of acute dosing of putative TNKS inhibitors, five day exposure cell viability assays were carried out. This included the sparse seeding of cells in a 96-well plate followed by continuous dosing of cells over a five day period.
(§3) Appropriate cell lines (HT55, COLO320DM and SW620) were seeded at 500 cells/well in a 96-well plate in MEM (HT55), RPMI (COLO320DM) or DMEM (SW620) supplemented with FBS. After overnight incubation, cells were treated with the appropriate putative TNKS inhibitor in 6 or 10 concentrations ranging from 0 μM to 10 μM at 0.2% final DMSO concentration in appropriate media supplemented with 10% or 0.5% FBS. Dosages were carried out in triplicate. Termination of the assay and measurement of cell viability was achieved by the use of Cell Titre Glo reagent and luminescence measurement on an appropriate plate reader.
(§4) Dose response curves used to determine SF50 values were Log transformed and analysed by non-linear regression analysis (variable slope) using Prism (GraphPad Software, Inc).

The next test relates to HT55 cells. Kind of test: Tumour Cell Inhibition Assay (HT55 cells). Particulars: Homo sapiens, HT55, 120 h, Tumour Cell Inhibition Assay, five day exposure. As for the experimental part: as §1, §2, §3, §4
For another test, the system named is SW620 cells. The test can be described thus: Tumour Cell Inhibition Assay (SW620 cells). Particulars: Homo sapiens, SW-620, 120 h, five day exposure. The method, then: as §1, §2, §3, §4

As to `CN1CCN(Cc2ccc(-c3cc4c(C#N)cccc4c(=O)[nH]3)cc2)CC1` [IQ-002, 3-[4-(4-Methyl-piperazin-1-ylmethyl)-phenyl]-1-oxo-1,2-dihydro-isoquinoline-5-carbonitrile], the pIC50 with Wnt signalling is more than 6.52; in the test on DLD1 cells, 5.64; in the test on COLO320DM cells it was more than 5.30.
Turning to `CN(C)C1CCN(Cc2ccc(-c3cc4c(C#N)cccc4c(=O)[nH]3)cc2)C1` (stereo not shown) [IQ-011], the pIC50 is more than 6.52 with Wnt signalling, more than 5.30 in the test on HT55 cells (read-out: cell inhibitory SF50 (HT55)) and more than 5.30 with COLO320DM cells.
As to `CN(C)C1CCN(Cc2ccc(-c3cc4c(C#N)cccc4c(=O)[nH]3)cc2)CC1` [IQ-012], the pIC50 was more than 6.52 in the test on Wnt signalling; 5.74 in the test with HT55 cells (replicate, read-out: cell inhibitory SF50 (HT55), replicate); more than 5.30 in the test with COLO320DM cells; 5.52 in the test on SW620 cells (read-out: cell inhibitory SF50 (SW620)); 5.77 in the test with SW620 cells (replicate, read-out: cell inhibitory SF50 (SW620), replicate).
As for `CN1CCN(Cc2ccc(-c3cc4c(C#N)cc(F)cc4c(=O)[nH]3)cc2)CC1` [IQ-014], the pIC50 was more than 6.52 in the test on Wnt signalling and more than 5.30 with COLO320DM cells.
